In patent US20240309015A1, “Methods for the Treatment of Fibrotic Disease” (SHY Therapeutics, LLC, priority 2021, published 2024):

Legend:
KRas wild type = test: Ras GTP Binding Domain Inhibition Assay, KRas wild type; details: at 20 μM; for KRas wild type + SOS: % inh.: with SOS; for KRas wild type: % inh.: without SOS
Description: (§1) A Ras Superfamily Activity Assay (as disclosed in International Application No. PCT/US2018/038613, filed Jun. 20, 2018, which is incorporated by reference in its entirety) was used as a specific assay to evaluate compounds against the following for the following Ras Superfamily proteins: KRas wild type, KRas Q61H mutant, KRas G12C mutant, KRas G12D mutant, Rac-1, and Rho-A.
(§2) Buffer-I: • 25 mM Tris-HCl, pH 7.4 • 27 mM KCl • 137 mM NaCl • 1 mM MgCl2 • 1 mM DTT
(§3) Buffer-IL: • 50 mM Tris-HCl, pH 7.0 • 1 mM MgCl2 • 1 mM DTT
(§4) The small GTPases proteins: KRas wild type. KRas Q61H mutant, KRas G12C mutant, KRas G12D mutants, Rac-1, and Rho-A were expressed as His-tagged proteins. In addition, the Guanosine nucleotide Exchange Factor (GEF) Sos protein (residues 556-1049) was expressed as a His-tagged protein. In cells, the guanine nucleotide exchange factor Sos protein promotes activation of Ras proteins by stimulating an exchange of GDP for GTP. The inclusion of Sos to the Ras GTP binding domain inhibition assay may be considered as an alternative representation of physiological cellular conditions for evaluating the inhibitory activity of some of the tested small molecules.
(§5) For the assay, all purified small GTPases proteins were diluted in Buffer-I or Buffer-II to a final concentration of 10-30 μg/mL. 200 μL of each diluted protein was added to a nickel-coated 96-well plate and incubated overnight at 4° C. Then the protein solution was discarded and 200 μL of Buffer-I or Buffer-II was added to each well in the presence of 1% DMSO. Compounds to be tested were added to the protein-coated wells at final concentration of 20 μM, and incubated for 3 hours at room temperature with and without 10-30 μg/mL of Sos added to the final hour of the incubation. When performing IC50 measurements a serial dilution of all tested concentrations was added. Then Cy3-GTP or Cy5-GTP was added to each well to a final concentration of 100 nM. The labeled GTP was incubated for 45 minutes at room temperature. Following GTP incubation, wells were washed 3× in Buffer-I or Buffer-II and 200 μL of Buffer-I or Buffer-II was added to each well. Following washes, the amount of bound labeled-GTP was measured using a SpectraMax M3 (Molecular Devices).

Rho-A = test: Ras GTP Binding Domain Inhibition Assay, Rho-A; details: at 20 μM; for Rho-A: % inh.: without SOS; for Rho-A + SOS: % inh.: with SOS
Description: as §1, §2, §3, §4, §5

KRas G12C mutant = test: Ras GTP Binding Domain Inhibition Assay, KRas G12C mutant; details: at 20 μM; for KRas G12C mutant: % inh.: without SOS; for KRas G12C mutant + SOS: % inh.: with SOS
Description: as §1, §2, §3, §4, §5

KRas G12D mutant = test: Ras GTP Binding Domain Inhibition Assay, KRas G12D mutant; details: at 20 μM; for KRas G12D mutant + SOS: % inh.: with SOS; for KRas G12D mutant: % inh.: without SOS
Description: as §1, §2, §3, §4, §5

SMILES	KRas wild type + SOS: % inh. (KRas wild type)	KRas wild type: % inh. (KRas wild type)	Rho-A: % inh. (Rho-A)	KRas G12C mutant: % inh. (KRas G12C mutant)	KRas G12D mutant + SOS: % inh. (KRas G12D mutant; Table 7)	KRas G12D mutant + SOS: % inh. (KRas G12D mutant; Table 8)	KRas G12D mutant: % inh. (KRas G12D mutant; Table 7)	KRas G12D mutant: % inh. (KRas G12D mutant; Table 8)	Rho-A + SOS: % inh. (Rho-A)	KRas G12C mutant + SOS: % inh. (KRas G12C mutant)
COCCNc1nc(-c2nccn2C)nc2sc(-c3ccccc3)c(-c3ccccc3)c12 [Compound 1, N-(2-Methoxyethyl)-2-(1-methyl-1H-imidazol-2-yl)-5,6-diphenylthieno[2,3-d]pyrimidin-4-amine]	A (A = 1-25% inhibition)	A (A = 1-25% inhibition)	C (C = 46-75% inhibition)	C (C = 46-75% inhibition)	A (A = 1-25% inhibition)	A (A = 1-25% inhibition)	D (D = 76-100% inhibition)	D (D = 76-100% inhibition)	–	–
COCCN(C)c1nc(-c2nccn2C)nc2sc(-c3ccccc3)c(-c3ccccc3)c12 [Compound 2, N-(2-Methoxyethyl)-N-methyl-2-(1-methyl-1H-imidazol-2-yl)-5,6-diphenylthieno[2,3-d]pyrimidin-4-amine]	–	C (C = 46-75% inhibition)	B (B = 26-45% inhibition)	B (B = 26-45% inhibition)	–	–	C (C = 46-75% inhibition)	C (C = 46-75% inhibition)	–	–
COC1CCN(c2nc(-c3nccn3C)nc3sc(-c4ccn(C)n4)c(-c4ccccc4)c23)CC1 [Compound 6, 4-(4-Methoxypiperidin-1-yl)-2-(1-methyl-1H-imidazol-2-yl)-6-(1-methyl-1H-pyrazol-3-yl)-5-phenylthieno[2,3-d]pyrimidine]	B (B = 26-45% inhibition)	0 (0 = 0% inhibition)	0 (0 = 0% inhibition)	B (B = 26-45% inhibition)	B (B = 26-45% inhibition)	B (B = 26-45% inhibition)	B (B = 26-45% inhibition)	B (B = 26-45% inhibition)	0 (0 = 0% inhibition)	C (C = 46-75% inhibition)
CO[C@@H]1CC[C@H](Nc2nc(-c3nccn3C)nc3sc(-c4ccn(C(C)C)n4)c(-c4ccccc4)c23)C1 [Compound 11, 6-(1-Isopropyl-1H-pyrazol-3-yl)-N-((1S,3R)-3-methoxycyclopentyl)-2-(1-methyl-1H-imidazol-2-yl)-5-phenylthieno[2,3-d]pyrimidin-4-amine]	D (D = 76-100% inhibition)	C (C = 46-75% inhibition)	B (B = 26-45% inhibition)	C (C = 46-75% inhibition)	C (C = 46-75% inhibition)	C (C = 46-75% inhibition)	C (C = 46-75% inhibition)	C (C = 46-75% inhibition)	B (B = 26-45% inhibition)	D (D = 76-100% inhibition)
CO[C@H]1CC[C@@H](Nc2nc(-c3nccn3C)nc3sc(-c4ccn(C(C)C)n4)c(C)c23)C1 (racemic) [Compound 12, rac-6-(1-Isopropyl-1H-pyrazol-3-yl)-N-((1R,3S)-3-methoxycyclopentyl)-5-methyl-2-(1-methyl-1H-imidazol-2-yl)thieno[2,3-d]pyrimidin-4-amine]	D (D = 76-100% inhibition)	D (D = 76-100% inhibition)	D (D = 76-100% inhibition)	C (C = 46-75% inhibition)	C (C = 46-75% inhibition)	C (C = 46-75% inhibition)	C (C = 46-75% inhibition)	C (C = 46-75% inhibition)	D (D = 76-100% inhibition)	D (D = 76-100% inhibition)
COCCn1ccnc1-c1nc(N[C@H]2C[C@@H](OC)C2)c2c(-c3ccccc3)c(-c3ccn(C)n3)sc2n1 [Compound 13, N-((1s,3s)-3-methoxycyclobutyl)-2-(1-(2-methoxyethyl)-1H-imidazol-2-yl)-6-(1-methyl-1H-pyrazol-3-yl)-5-phenylthieno[2,3-d]pyrimidin-4-amine]	D (D = 76-100% inhibition)	D (D = 76-100% inhibition)	D (D = 76-100% inhibition)	D (D = 76-100% inhibition)	D (D = 76-100% inhibition)	D (D = 76-100% inhibition)	C (C = 46-75% inhibition)	C (C = 46-75% inhibition)	D (D = 76-100% inhibition)	D (D = 76-100% inhibition)
COCCNc1nc(-c2cn(C)cn2)nc2sc(-c3cccc(OC)c3Cl)c(-c3ccc(OC)cc3)c12 [Compound 8, 6-(2-Chloro-3-methoxyphenyl)-N-(2-methoxyethyl)-5-(4-methoxyphenyl)-2-(1-methyl-1H-imidazol-4-yl)thieno[2,3-d]pyrimidin-4-amine]	D (D = 76-100% inhibition)	C (C = 46-75% inhibition)	C (C = 46-75% inhibition)	B (B = 26-45% inhibition)	B (B = 26-45% inhibition)	B (B = 26-45% inhibition)	B (B = 26-45% inhibition)	B (B = 26-45% inhibition)	C (C = 46-75% inhibition)	D (D = 76-100% inhibition)
COCCCNc1nc(-c2nccn2C)nc2sc(-c3ccccc3)c(-c3ccccc3)c12 [Compound 3, N-(3-Methoxypropyl)-2-(1-methyl-1H-imidazol-2-yl)-5,6-diphenylthieno[2,3-d]pyrimidin-4-amine]	A (A = 1-25% inhibition)	C (C = 46-75% inhibition)	C (C = 46-75% inhibition)	C (C = 46-75% inhibition)	A (A = 1-25% inhibition)	A (A = 1-25% inhibition)	C (C = 46-75% inhibition)	C (C = 46-75% inhibition)	–	–
COc1cccc(-c2sc3nc(-c4nccn4C)nc(NC4CCC(OC)C4)c3c2C)c1F (racemic) [Compound 10, rac-6-(2-Fluoro-3-methoxyphenyl)-N-((1R,3S)-3-methoxycyclopentyl)-5-methyl-2-(1-methyl-1H-imidazol-2-yl)thieno[2,3-d]pyrimidin-4-amine and rac-6-(2-Fluoro-3-methoxyphenyl)-N-((1R,3R)-3-methoxycyclopentyl)-5-methyl-2-(1-methyl-1H-imidazol-2-yl)thieno[2,3-d]pyrimidin-4-amine]	C (C = 46-75% inhibition)	C (C = 46-75% inhibition)	D (D = 76-100% inhibition)	D (D = 76-100% inhibition)	C (C = 46-75% inhibition)	C (C = 46-75% inhibition)	D (D = 76-100% inhibition)	D (D = 76-100% inhibition)	D (D = 76-100% inhibition)	C (C = 46-75% inhibition)
